Reference: patent EP0377642B1, “HERBICIDES FOR WEED CONTROL IN RICE” (E.I. DU PONT DE NEMOURS AND COMPANY, priority 1987, dated 1989)
Read-outs that look alike come from different tables or passages of the source.

Columns and labels:
Type in all cases: in vivo
[1] = tested on: Ludwigia linifolia; experiment: Herbicidal efficacy with Bensulfuron methyl and 2,4-D in Thailand (Table 20); settings: 14 days after treatment
From the text: (§1) Methyl 2-[[[[(4-methoxy-6-methyl-1,3,5-triazin-2-yl)amino]carbonyl]amino]sulfonyl]benzoate (Compound 1) and mixtures thereof with other compounds were applied as a spray (using a hand sprayer) to rice (either transplanted or direct seeded) in several rice growing areas in Southeast Asia and in the U.S. Tables 1-28 contain the results of these tests and clearly exemplify the utility of this invention. The details of each application are included in the appropriate table. [drawing 2]

[2] = tested on: FIMBRISTYLIS MILIACEA; experiment: as above; settings: 14 days after treatment
From the text: as §1

[3] = tested on: Sphenoclea zeylanica; experiment: as above; settings: 14 days after treatment
From the text: as §1

[4] = tested on: Cuperus iria; experiment: as above; settings: 14 days after treatment
From the text: as §1

[5] = tested on: rice; experiment: as above; settings: 14 days after treatment
From the text: as §1

[6] = tested on: Jussiaea linifolia; experiment: Field test applied at 18 DAS in direct seeded rice (Table 12); settings: scale 0-10
From the text: as §1

[7] = tested on: FIMBRISTYLIS MILIACEA; experiment: as above; settings: scale 0-10
From the text: as §1

[8] = tested on: Cyperus iria; experiment: as above; settings: scale 0-10
From the text: as §1

[9] = tested on: Sphenoclea zeylanica; experiment: as above; settings: scale 0-10
From the text: as §1

[10] = tested on: direct seeded rice; settings: for PHYTO at 2WAA: scale 0-10;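 on YIELD: yield in Tons/ha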
From the text: as §1

[11] = tested on: Cyperus difformis; experiment: Herbicidal efficacy with Bensulfuron methyl and 2,4-D in Thailand (Table 18); settings: 13 days after treatment
From the text: as §1

[12] = tested on: Sphenoclea zeylanica; experiment: as above; settings: 13 days after treatment
From the text: as §1

[13] = tested on: rice; experiment: as above; settings: 13 days after treatment
From the text: as §1

[14] = tested on: rice; experiment: Effects in combination with Bensulfuron Methyl and Thiobencarb or Pretilachlor on rice growth (Table 23); settings: rate 25 g ai/ha; var. Koshihikari, applied 7 days after transplanting, rated 21 days after application
From the text: as §1

For `COC(=O)c1ccccc1CS(=O)(=O)NC(=O)Nc1nc(OC)cc(OC)n1` [Bensulfuron methyl, methyl 2-[[[[[(4,6-dimethoxy-2-pyrimidinyl)amino]carbonyl]amino]sulfonyl]methyl]benzoate], the “% CONTROL OR INJURY LL” value ([1]; 10 GAI/HA) was 80%, the “% CONTROL OR INJURY LL” value ([1]; 15 GAI/HA) was 80% and the “% CONTROL OR INJURY LL” value ([1]; 20 GAI/HA) was 87%. The “% CONTROL OR INJURY FM” value ([2]; 10 GAI/HA) was 80%, the “% CONTROL OR INJURY FM” value ([2]; 15 GAI/HA) was 100% and the “% CONTROL OR INJURY FM” value ([2]; 20 GAI/HA) was 100%. The “% CONTROL OR INJURY SZ” value ([3]; 10 GAI/HA) was 23%, the “% CONTROL OR INJURY SZ” value ([3]; 15 GAI/HA) was 60% and the “% CONTROL OR INJURY SZ” value ([3]; 20 GAI/HA) was 53%. The “% CONTROL OR INJURY CI” value ([4]; 10 GAI/HA) was 77%, the “% CONTROL OR INJURY CI” value ([4]; 15 GAI/HA) was 90% and the “% CONTROL OR INJURY CI” value ([4]; 20 GAI/HA) was 95%. For the same compound, the “% CONTROL OR INJURY RICE” value ([5]; 10 GAI/HA) was 0%, the “% CONTROL OR INJURY RICE” value ([5]; 15 GAI/HA) was 0% and the “% CONTROL OR INJURY RICE” value ([5]; 20 GAI/HA) was 0%. The “WEED CONTROL at 6 WAA JL” value ([6]; 10 GM.A.I./HA) was 8.0, the “WEED CONTROL at 6 WAA JL” value ([6]; 15 GM.A.I./HA) was 7.67 and the “WEED CONTROL at 6 WAA JL” value ([6]; 20 GM.A.I./HA) was 9.50. For the same compound, the “WEED CONTROL at 6 WAA JL” value ([6]; 30 GM.A.I./HA) was 8.67, the “WEED CONTROL at 6 WAA FM” value ([7]; 10 GM.A.I./HA) was 10 and the “WEED CONTROL at 6 WAA FM” value ([7]; 15 GM.A.I./HA) was 9.67. The “WEED CONTROL at 6 WAA FM” value ([7]; 20 GM.A.I./HA) was 10, the “WEED CONTROL at 6 WAA FM” value ([7]; 30 GM.A.I./HA) was 10 and the “WEED CONTROL at 6 WAA CI” value ([8]; 10 GM.A.I./HA) was 6.67. The “WEED CONTROL at 6 WAA CI” value ([8]; 15 GM.A.I./HA) was 9.0, the “WEED CONTROL at 6 WAA CI” value ([8]; 20 GM.A.I./HA) was 9.33 and the “WEED CONTROL at 6 WAA CI” value ([8]; 30 GM.A.I./HA) was 9.67. For the same compound, the “WEED CONTROL at 6 WAA SZ” value ([9]; 10 GM.A.I./HA) was 5.67, the “WEED CONTROL at 6 WAA SZ” value ([9]; 15 GM.A.I./HA) was 6.67 and the “WEED CONTROL at 6 WAA SZ” value ([9]; 20 GM.A.I./HA) was 5.67. For the same compound, the “WEED CONTROL at 6 WAA SZ” value ([9]; 30 GM.A.I./HA) was 9.67, the YIELD ([10]; 7 DAS, 10 GM.A.I./HA) was 4.92 TONS/HA and the “PHYTO at 2WAA” value ([10]; 7 DAS, 10 GM.A.I./HA) was 0. The YIELD ([10]; 7 DAS, 15 GM.A.I./HA) was 4.99 TONS/HA, the “PHYTO at 2WAA” value ([10]; 7 DAS, 15 GM.A.I./HA) was 0 and the YIELD ([10]; 7 DAS, 20 GM.A.I./HA) was 5.01 TONS/HA. The “PHYTO at 2WAA” value ([10]; 7 DAS, 20 GM.A.I./HA) was 0, the YIELD ([10]; 7 DAS, 30 GM.A.I./HA) was 4.67 TONS/HA and the “PHYTO at 2WAA” value ([10]; 7 DAS, 30 GM.A.I./HA) was 0. The YIELD ([10]; 18 DAS, 10 GM.A.I./HA) was 4.61 TONS/HA, the “PHYTO at 2WAA” value ([10]; 18 DAS, 10 GM.A.I./HA) was 0 and the YIELD ([10]; 18 DAS, 15 GM.A.I./HA) was 4.49 TONS/HA. The “PHYTO at 2WAA” value ([10]; 18 DAS, 15 GM.A.I./HA) was 0, the YIELD ([10]; 18 DAS, 20 GM.A.I./HA) was 4.61 TONS/HA and the “PHYTO at 2WAA” value ([10]; 18 DAS, 20 GM.A.I./HA) was 0. The YIELD ([10]; 18 DAS, 30 GM.A.I./HA) was 5.17 TONS/HA, the “PHYTO at 2WAA” value ([10]; 18 DAS, 30 GM.A.I./HA) was 0 and the “% CONTROL OR INJURY CD” value ([11]; 10 GAI/HA) was 100%. For the same compound, the “% CONTROL OR INJURY CD” value ([11]; 15 GAI/HA) was 100%, the “% CONTROL OR INJURY CD” value ([11]; 20 GAI/HA) was 100% and the “% CONTROL OR INJURY SZ” value ([12]; 10 GAI/HA) was 99%. The “% CONTROL OR INJURY SZ” value ([12]; 15 GAI/HA) was 100%, the “% CONTROL OR INJURY SZ” value ([12]; 20 GAI/HA) was 100% and the “% CONTROL OR INJURY RICE” value ([13]; 10 GAI/HA) was 0%. For the same compound, the “% CONTROL OR INJURY RICE” value ([13]; 15 GAI/HA) was 0%, the “% CONTROL OR INJURY RICE” value ([13]; 20 GAI/HA) was 0% and the “CROP TOLERANCE DW (Dry weight relative to untreated check)” value [14] was 79%. The “CROP TOLERANCE PH (Plant height relative to untreated check)” value [14] was 89% and the “CROP TOLERANCE VA (Visual crop injury)” value [14] was 2.5%.
